Reference: patent US6417384B1, “Radioiodinated phospholipid ether analogs and methods of using the same” (The Regents of the University of Michigan, priority 1999, dated 2002)

Tested on: rats bearing Walker-256 tumor
Experiment: Biodistribution studies with Walker-256 carcinosarcoma
Assay type: in vivo, rat
Conditions: i.v., Walker-256 tumor-bearing rats, mean ± SEM
Method: The three radiolabelled compounds illustrated in FIG. 5, including the improved C-18 analog 18-(p-iodophenyl)octadecyl phosphocholine (Compound XVI) described in Example 2, were prepared and administered to two sets of female Sprague Dawley rats (Charles River, Portage, Mich.). One normal set was used as a control, and one set was inoculated with Walker-256 carcinosarcoma cells (5×10^6 cells) in 0.2 ml saline in the right hindlimb. The Walker carcinoma cell line was provided by Dr. James Varani of the Department of Pathology at the University of Michigan, and is an accepted cell line representative of effect in humans. See, e.g. Tayck et al., “Influence of the Walker 256 Carcinosarcoma on Muscle, Tumor, and Whole-Body Protein Synthesis and Growth Rate in the Cancer-Bearing Rat, Cancer Res. 46:5649-54 (1986).
The animals were used 6-8 days later when the tumor weight averaged 10 g. The radiolabelled compounds were dissolved in absolute ethanol (50-500 μl) and Tween-20 (0.1 ml/mg of compound) was added to the solution. Ethanol was removed by evaporation under a stream of nitrogen. Physiological saline or sterile water was added, to give a 2-3% Tween-20 solution which was subsequently mixed by vortex. The solubilized radiolabelled compounds (5-10 μCi, 0.3 ml) were administered intravenously via the tail vein to tumor bearing rats, and the animals were sacrificed by exsanguination while under ether anesthesia at the various time points. Blood samples were collected through cardiac puncture and selected tissues (liver, kidney, etc.) were removed, trimmed, blotted to remove excess blood and weighed. Large organs were thoroughly minced with scissors to obtain random representative tissue samples.
For the biodistribution experiments with 12-(p-iodophenyl)dodecyl phosphocholine, weighed tissue samples were counted with a well scintillation counter (85% counting efficiency). The concentration of radioactivity in each tissue was expressed as a percentage of administered dose per gram of tissue.
Tissue distribution was assessed at various times following administration of the radioiodinated chain length isomers. The results are expressed as the mean % administered dose per gram±SEM (% Dose/g±SEM).

In the case of `C[N+](C)(C)CCOP(=O)([O-])OCCCCCCCCCCCCCCCc1ccc(I)cc1` [C-15 Analog, 15-(p-iodophenyl)pentadecyl phosphocholine], the “mean % administered dose per gram, Adrenal” value (24 hr) is reported as 0.73 ± 0.08 % Dose/g, the “mean % administered dose per gram, Adrenal” value (48 hr) is reported as 0.49 ± 0.05 % Dose/g and the “mean % administered dose per gram, Blood” value (Blood, 24 hr) is reported as 0.16 ± 0.01 % Dose/g. For the same compound, the “mean % administered dose per gram, Blood” value (Blood, 48 hr) was 0.14 ± 0.01 % Dose/g, the blood levels (Blood, 120 hours) was 0.07±0.01 % Dose/g and the “mean % administered dose per gram, Duodenum” value (24 hr) was 1.13 ± 0.13 % Dose/g. For the same compound, the “mean % administered dose per gram, Duodenum” value (48 hr) was 1.38 ± 0.24 % Dose/g, the “mean % administered dose per gram, Kidney” value (24 hr) was 1.14 ± 0.11 % Dose/g and the “mean % administered dose per gram, Kidney” value (48 hr) was 0.91 ± 0.04 % Dose/g. For the same compound, the “mean % administered dose per gram, Liver” value (24 hr) was 1.29 ± 0.10 % Dose/g, the “mean % administered dose per gram, Liver” value (48 hr) was 0.83 ± 0.04 % Dose/g and the “mean % administered dose per gram, Lung” value (24 hr) was 0.97 ± 0.03 % Dose/g. The “mean % administered dose per gram, Lung” value (48 hr) was 0.81 ± 0.04 % Dose/g, the “mean % administered dose per gram, Plasma” value (24 hr) was 0.16 ± 0.01 % Dose/g and the “mean % administered dose per gram, Plasma” value (48 hr) was 0.15 ± 0.03 % Dose/g. The “mean % administered dose per gram, Tumor” value (24 hr) was 1.47 ± 0.10 % Dose/g and the “mean % administered dose per gram, Tumor” value (48 hr) was 1.65 ± 0.23 % Dose/g.
